The test system of data set [1] is MDA levels. Conditions: CKD patients treated with iron gluconate; cited from earlier work.
In data set [2] the test system is aortic ring. The following applies: cited from earlier work; for iron-induced endothelial dysfunction of the blood vessel: rats, iron co-administered with the antioxidant.
Data set [3] has as its system rat aortic rings. The experiment in a line: animal or person. The following applies: for relaxation response to acetylcholine at 100 nM in iron treated rats given antioxidant: 100 nM acetylcholine, iron sucrose plus Tempol (drinking water), N-acetylcysteine 140 mg/kg iv or Vitamin C 100 mg/kg iv, iron alone 22±10%; for Maximum relaxation of aortic ring in iron-treated animals given antioxidant: iron sucrose 14 mg/kg iv plus Tempol 2 mmol/L in drinking water 72 h or N-acetylcysteine 140 mg/kg iv, iron alone 46±14%. It counts as in vivo, Sprague-Dawley rats. As to the method:
Forty seven normal Sprague-Dawley rats (280-350 g) were included in this study. Twenty three rats were injected in the tail vein with 14 mg/kg iron sucrose (Venofer, American Regent) twenty four hours before dissection of the aortic ring.
Twenty four hours after iron sucrose injection, the rats were sacrificed by interperitoneal injection of 100 mg/kg Inactin. Blood was collected for measurement of markers of oxidative stress and the thoracic aorta isolated and placed in ice cold PSS.
The surrounding tissue of aorta was carefully dissected away and care taken to not damage the endothelium. The aorta was then cut into a 4-5 mm width transverse ring and then mounted isometrically in 10 mL organ bath containing oxygenated PSS warmed to 37° C. and gassed with air.
The aortic ring was suspended under a resting force of […] and allowed to equilibrate for 30 minutes before administration of any agents. The bath was perfused with fresh PSS and was washed with PSS after each test response to the administered agents. The aortic ring was preconstricted with 10 nM phenylephrine prior to the addition of acetylcholine, and allowed to equilibrate for another 30 minutes.
Isometric contraction was measured on an oscillographic recorder. Subsequently acetylcholine was added to the bath in increasing doses of 1 nM to 100 μM and the relaxation response to each dose was recorded as the percentage of the drop in the starting resting force. […] P<0.05 was considered significant.

A short description of data set [4]: light stability of Tempol solutions. It counts as physicochemical. Conditions: solutions left in sunlight.
The test system of data set [5] is oxidative stress markers. The following applies: cited from earlier work.

Regarding `CC(=O)N[C@@H](CS)C(=O)O` [N-acetylcysteine], the “MDA level decrease after iron gluconate” value in data set [1] is on record as “not observed”. Besides, the “iron-induced endothelial dysfunction of the blood vessel” value in data set [2] is reported as “completely attenuated”. Moreover, in data set [3], the “relaxation response to acetylcholine at 100 nM in iron treated rats given antioxidant” value was 42±13% and the “Maximum relaxation of aortic ring in iron-treated animals given antioxidant” value is listed as 69.9±13%.
As for `CC1(C)CC(O)CC(C)(C)N1[O]` [Tempol, 4-hydroxy-2,2,6,6-tetramethyl-1-piperidine-1-oxyl], the “stability of solutions in sunlight” value in data set [4] is listed as “discolor when left in sunlight”. For the same compound, in data set [2], the “iron-induced endothelial dysfunction of the blood vessel” value is recorded as “completely attenuated”. In data set [3], the “relaxation response to acetylcholine at 100 nM in iron treated rats given antioxidant” value worked out at 48±17% and the “Maximum relaxation of aortic ring in iron-treated animals given antioxidant” value came to 75±15%.
On to `O=C1O[C@H]([C@@H](O)CO)C(O)=C1O` [Vitamin C], for which the “reducing iron-induced oxidative stress markers” value in data set [5] (dialysis population) is on record as “not been shown to be effective”. Moreover, in data set [5] (subjects with physiologic Vitamin C levels), the “effect when co-administered with iron” value is “pro-oxidant effect”. Also, the “relaxation response to acetylcholine at 100 nM in iron treated rats given antioxidant” value in data set [3] came out at 41±8%. The “relaxation response to 100 nM through 100 μM of acetylcholine, addition to iron treatment” value in data set [3] (Vitamin C 100 mg/kg iv with iron sucrose, only statistically significant at 100 nM acetylcholine (FIG. 3)) is reported as “increased the relaxation response”.
Consider `CC(=O)OCC[N+](C)(C)C` [acetylcholine], for which, in data set [3] (Rattus norvegicus, iv, aortic rings preconstricted with 10 nM phenylephrine, all treatment groups, read-out: IC50 for all dose response curves (acetylcholine relaxation of aortic ring)), the IC50 (in general, the concentration at which inhibition is half-maximal) is 100 nM.
With iron sucrose, the “reduction in aortic ring vasodilation in response to acetylcholine” value in data set [2] (rat, in vivo, iv) is listed as 40%. Moreover, in data set [3] (rat, in vivo), the “relaxation response of aortic ring to increasing doses of acetylcholine” value was “significantly reduced” and the “relaxation response to acetylcholine at 100 nM” value is on record as 22±10%. Further, the “Maximum relaxation of aortic ring (percentage of the drop in the starting resting force)” value in data set [3] (rat, in vivo, iv, 14 mg/kg) is reported as 46±14%.
